Laboratory results reported in ChEMBL document CHEMBL1201862, “PubChem BioAssay data set” (2004).
Activity calls are given as the source filed them.

Experiments:
[1] = M. tuberculosis H37Rv growth inhibitors, H37Rv strain (AID 1626); type: functional
[2] = target: G-protein coupled receptor 183 (Homo sapiens, UniProt P32249); assay: SAR confirmation of small molecule antagonists of the EBI2 receptor via a luminescent beta-arrestin assa.; type: functional
[3] = target: 5-hydroxytryptamine receptor 1A (Homo sapiens, UniProt P08908); type: functional
Sequence of 5-hydroxytryptamine receptor 1A (P08908 whole entry): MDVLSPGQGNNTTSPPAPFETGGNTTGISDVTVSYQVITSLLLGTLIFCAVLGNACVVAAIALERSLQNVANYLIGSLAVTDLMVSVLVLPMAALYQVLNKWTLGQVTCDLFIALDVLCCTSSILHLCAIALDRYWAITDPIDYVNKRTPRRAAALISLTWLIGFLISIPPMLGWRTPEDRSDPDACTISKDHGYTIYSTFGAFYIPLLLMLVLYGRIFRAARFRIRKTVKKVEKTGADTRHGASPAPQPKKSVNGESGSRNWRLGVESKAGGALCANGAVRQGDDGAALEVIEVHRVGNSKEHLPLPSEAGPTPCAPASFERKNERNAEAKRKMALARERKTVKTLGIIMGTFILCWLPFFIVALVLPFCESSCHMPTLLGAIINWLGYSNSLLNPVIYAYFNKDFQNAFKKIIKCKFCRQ

[4] = target: T1, Heat shock factor protein 1 (Mus musculus, UniProt P38532); assay: HSF1 potentiators in luciferase reporter cells, confirmation, cell-based, NIH3T3, luminescence, dose retest (AID 435004); type: functional;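 further: stress induced by proteasome inhibitor MG132 added 30 min after compound; luciferase reporter driven by HSF1 response element in NIH3T3 cells; actives raise luminescence as potentiators of the MG132 stress response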
T1 sequence (P38532 whole entry): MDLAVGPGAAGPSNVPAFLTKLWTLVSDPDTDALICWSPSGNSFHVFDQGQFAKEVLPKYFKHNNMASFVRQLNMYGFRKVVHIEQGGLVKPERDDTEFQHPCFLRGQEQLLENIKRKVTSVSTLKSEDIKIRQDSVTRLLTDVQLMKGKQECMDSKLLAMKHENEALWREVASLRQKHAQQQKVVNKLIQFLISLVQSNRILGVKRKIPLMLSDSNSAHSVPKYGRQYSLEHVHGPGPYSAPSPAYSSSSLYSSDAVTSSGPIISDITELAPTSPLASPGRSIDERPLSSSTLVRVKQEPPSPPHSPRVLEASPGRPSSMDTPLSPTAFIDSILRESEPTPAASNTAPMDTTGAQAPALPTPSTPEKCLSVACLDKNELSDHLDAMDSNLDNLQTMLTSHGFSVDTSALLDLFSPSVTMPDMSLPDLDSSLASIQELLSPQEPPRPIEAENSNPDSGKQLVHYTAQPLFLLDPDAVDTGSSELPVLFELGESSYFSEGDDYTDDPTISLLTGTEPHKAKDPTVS

[5] = Luminescent dose response cell-based high throughput screening assay for inhibitors of the Janus kinase 2 mutant JAK2V617F. [Related pubchem assays: 1446 (Primary screen.), 1521 (Confirmation assay.), 1486 (Counter screen.)]; type: functional
[6] = Fluorescence Cell-Based Dose Response to Identify Inhibitors of Thrombin Receptor-Activating Peptide SFLLRN-Mediated P-Selectin Induction on Platelets. [Related pubchem assays: 1663 (Primary HTS), 1889 (retest at dose ), 1891 (counterscreen), 1678 (Project Summary)]; type: functional
[7] = target: Luciferin 4-monooxygenase (Photinus pyralis, UniProt P08659); assay: firefly luciferase enzyme inhibitors, dose response, biochemical, luminescence (AID 1891)
Sequence of Luciferin 4-monooxygenase (P08659 whole entry): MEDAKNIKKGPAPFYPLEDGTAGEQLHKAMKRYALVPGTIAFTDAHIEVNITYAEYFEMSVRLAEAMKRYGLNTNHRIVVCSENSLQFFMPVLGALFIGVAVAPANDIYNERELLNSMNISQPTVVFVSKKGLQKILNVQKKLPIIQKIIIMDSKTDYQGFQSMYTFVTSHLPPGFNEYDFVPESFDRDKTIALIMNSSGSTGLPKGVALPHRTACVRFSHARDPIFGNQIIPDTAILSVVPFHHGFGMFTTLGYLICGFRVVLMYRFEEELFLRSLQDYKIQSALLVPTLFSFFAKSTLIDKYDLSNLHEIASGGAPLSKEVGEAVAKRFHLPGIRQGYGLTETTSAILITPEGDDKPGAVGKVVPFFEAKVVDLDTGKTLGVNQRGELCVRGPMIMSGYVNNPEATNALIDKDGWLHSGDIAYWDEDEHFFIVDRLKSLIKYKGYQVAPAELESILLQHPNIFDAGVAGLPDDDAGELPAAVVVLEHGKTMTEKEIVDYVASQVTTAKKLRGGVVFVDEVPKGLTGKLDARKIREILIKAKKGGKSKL

[8] = Luminescence Cell-Based Dose Confirmation HTS to Identify Inhibitors of Platelet Dense Granule Release. [Related pubchem assays: 1663 (Primary HTS), 1678 (Summary of Project)]; type: functional
[9] = target: Prothrombin (Homo sapiens, UniProt P00734); assay: Thrombin 1536 HTS Dose Response Confirmation. [Related pubchem assays: 1046 (Thrombin 1536 HTS; hits were confirmed in this assay)]; type: functional
[10] = P. falciparum Dd2 growth inhibitors, dose response, SYBR Green, cherry-picked samples (AID 1159567); type: functional, cell-based
[11] = P. falciparum Dd2 growth inhibitors, dose response, SYBR Green, dry powder samples (AID 1159566); type: functional, cell-based;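 further: potency for growth inhibition with lower SYBR green DNA signal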
[12] = P. falciparum 3D7-ScDHODH growth inhibitors, dose response, SYBR Green, dry powder samples (AID 1159570); type: functional, cell-based;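 further: parasite growth measured after 72 hours of compound exposure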
[13] = P. falciparum ATP4 D1247Y mutant growth inhibitors, dose response, NITD609-resistant line, SYBR Green, dry powder (AID 1159571); type: functional, cell-based;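 further: parasites synchronized at ring stage by sorbitol before testing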
[14] = Plasmodium falciparum Dd2 Sybr green parasite growth Measured in Cell-Based and Microorganism Combination System Using Plate Reader - 2153-01_Inhibitor_Dose_DryPowder_Activity_Set3.; type: functional
[15] = HepG2 cell cytotoxicity, dose response, cytotoxicity control, plate reader, dry powder samples (AID 1159569); type: functional, cell-based;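 further: inhibitor potency with signal falling toward the positive control level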
[16] = NIH:OVCAR-3 ovarian cancer cell cytotoxicity, dose response, PAX8 inhibitor project, plate reader, dry powder samples (AID 743044); type: functional, cell-based
[17] = system: INS1; assay: beta cell apoptosis inhibitors, cytokine rescue, dose response, luminescence, retest (AID 449756); type: functional, cell-based; conditions: Rattus norvegicus, INS1;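 further: cell death triggered by IL-1 beta plus TNF-alpha plus IFN-gamma mixture; protective hits raise ATP signal compared with cytokine alone wells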
[18] = IGROV1 ovarian cancer cell cytotoxicity, dose response, PAX8 inhibitor project, plate reader, dry powder samples (AID 743043); type: functional, cell-based; conditions: IGROV-1
[19] = target: Paired box protein Pax-8 (Homo sapiens, UniProt Q06710); assay: inhibitors of PAX8-driven TPO luciferase reporter, dose response, RMG-I cells, cherry-pick (AID 687027); type: functional, cell-based;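 further: luciferase reporter driven by Pax8 target thyroperoxidase promoter measured by SteadyGlo luminescence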
Sequence of Paired box protein Pax-8 (Q06710 whole entry): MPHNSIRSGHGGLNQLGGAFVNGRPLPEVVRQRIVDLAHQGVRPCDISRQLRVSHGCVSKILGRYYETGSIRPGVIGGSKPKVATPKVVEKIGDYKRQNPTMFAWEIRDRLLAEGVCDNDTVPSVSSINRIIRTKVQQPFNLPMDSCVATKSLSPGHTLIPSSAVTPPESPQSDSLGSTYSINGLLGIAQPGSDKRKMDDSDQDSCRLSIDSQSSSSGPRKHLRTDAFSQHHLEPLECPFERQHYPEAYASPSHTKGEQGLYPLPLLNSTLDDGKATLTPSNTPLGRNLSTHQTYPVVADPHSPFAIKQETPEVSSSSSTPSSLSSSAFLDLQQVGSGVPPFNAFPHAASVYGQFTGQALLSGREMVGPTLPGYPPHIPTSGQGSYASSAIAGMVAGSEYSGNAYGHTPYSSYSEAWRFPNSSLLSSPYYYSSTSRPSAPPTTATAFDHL

[20] = cytotoxicity dependent on PAX8, dose response, cell-based, plate reader, dry powder (AID 743049); type: functional
[21] = PAX5 activity inhibitors, dose response, selectivity assay for PAX8 inhibitor project, cell-based, plate reader, dry powder samples (AID 743047); type: functional;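 further: HEK293 cells carrying a Pax5 driven CD19 promoter luciferase reporter; potency of inhibitors that lower reporter luminescence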
[22] = cytotoxicity in COV434 cells, dose response, cytotoxicity control for PAX8 inhibitor project, cell-based, plate reader, dry powder, SA7 (AID 743145); type: functional
[23] = PAX2 cell-based inhibition, dose response, selectivity assay for PAX8 inhibitor project, plate reader, dry powder samples (AID 743048); type: functional;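 further: HEK293 cells carrying a WT1 promoter luciferase reporter driven by expressed Pax2; potency is for inhibition of Pax2 driven reporter signal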
[24] = target: Metabotropic glutamate receptor 7 (Homo sapiens, UniProt Q14831); assay: mGlu7 positive allosteric modulators, dose response, cell-based, calcium mobilization, Galpha15 (AID 743384); type: functional
Sequence of Metabotropic glutamate receptor 7 (Q14831 whole entry): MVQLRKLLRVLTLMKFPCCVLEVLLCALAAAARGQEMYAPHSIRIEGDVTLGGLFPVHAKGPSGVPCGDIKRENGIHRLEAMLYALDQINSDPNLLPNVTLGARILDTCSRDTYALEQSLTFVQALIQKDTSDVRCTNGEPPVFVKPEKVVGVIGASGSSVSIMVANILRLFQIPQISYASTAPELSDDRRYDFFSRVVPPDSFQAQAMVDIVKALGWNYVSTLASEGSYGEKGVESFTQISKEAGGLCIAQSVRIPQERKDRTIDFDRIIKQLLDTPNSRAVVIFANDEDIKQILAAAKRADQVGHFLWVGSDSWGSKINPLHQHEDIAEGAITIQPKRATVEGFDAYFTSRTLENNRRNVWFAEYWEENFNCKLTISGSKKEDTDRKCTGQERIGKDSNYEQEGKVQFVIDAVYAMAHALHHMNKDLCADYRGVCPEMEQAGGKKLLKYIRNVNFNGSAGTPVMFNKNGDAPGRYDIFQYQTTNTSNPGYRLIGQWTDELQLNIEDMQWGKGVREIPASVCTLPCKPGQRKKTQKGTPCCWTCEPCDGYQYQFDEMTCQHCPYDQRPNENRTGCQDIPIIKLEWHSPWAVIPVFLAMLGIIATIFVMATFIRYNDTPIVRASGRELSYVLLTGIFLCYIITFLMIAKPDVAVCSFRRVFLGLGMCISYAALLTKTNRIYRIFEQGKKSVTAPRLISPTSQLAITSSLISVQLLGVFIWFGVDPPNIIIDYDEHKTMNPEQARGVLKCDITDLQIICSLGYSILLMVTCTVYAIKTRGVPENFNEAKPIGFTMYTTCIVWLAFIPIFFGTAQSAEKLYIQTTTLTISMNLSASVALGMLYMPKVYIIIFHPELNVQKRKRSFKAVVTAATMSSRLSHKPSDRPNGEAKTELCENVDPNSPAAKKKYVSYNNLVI

[25] = target: T2, Estrogen receptor beta (Homo sapiens, UniProt Q92731);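 further: recombinant ER-beta bound to coactivator SRC1 peptide in presence of estradiol agonist; inhibitors block coactivator peptide binding and lower the FRET signal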
T2 sequence (Q92731 whole entry): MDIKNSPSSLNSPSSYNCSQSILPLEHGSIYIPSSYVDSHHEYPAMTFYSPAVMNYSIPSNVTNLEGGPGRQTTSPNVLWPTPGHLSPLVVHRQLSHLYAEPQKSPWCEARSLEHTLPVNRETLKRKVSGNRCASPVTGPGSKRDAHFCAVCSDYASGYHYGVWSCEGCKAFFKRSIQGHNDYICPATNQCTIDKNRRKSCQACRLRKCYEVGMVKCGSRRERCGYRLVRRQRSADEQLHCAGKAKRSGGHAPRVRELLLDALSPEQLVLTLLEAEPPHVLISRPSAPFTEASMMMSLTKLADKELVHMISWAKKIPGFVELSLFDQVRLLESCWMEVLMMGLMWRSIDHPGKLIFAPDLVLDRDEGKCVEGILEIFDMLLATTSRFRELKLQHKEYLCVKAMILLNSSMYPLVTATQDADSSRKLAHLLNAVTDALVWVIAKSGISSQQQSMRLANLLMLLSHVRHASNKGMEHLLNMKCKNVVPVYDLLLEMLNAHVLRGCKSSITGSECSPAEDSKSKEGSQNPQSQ

[26] = target: T3, Zinc finger protein mex-5 (Caenorhabditis elegans, UniProt Q9XUB2); assay: MEX-5/TCR-2 RNA interaction inhibitors, dose response, biochemical, C. elegans, fluorescence polarization (AID 1960)
T3 sequence (Q9XUB2 whole entry): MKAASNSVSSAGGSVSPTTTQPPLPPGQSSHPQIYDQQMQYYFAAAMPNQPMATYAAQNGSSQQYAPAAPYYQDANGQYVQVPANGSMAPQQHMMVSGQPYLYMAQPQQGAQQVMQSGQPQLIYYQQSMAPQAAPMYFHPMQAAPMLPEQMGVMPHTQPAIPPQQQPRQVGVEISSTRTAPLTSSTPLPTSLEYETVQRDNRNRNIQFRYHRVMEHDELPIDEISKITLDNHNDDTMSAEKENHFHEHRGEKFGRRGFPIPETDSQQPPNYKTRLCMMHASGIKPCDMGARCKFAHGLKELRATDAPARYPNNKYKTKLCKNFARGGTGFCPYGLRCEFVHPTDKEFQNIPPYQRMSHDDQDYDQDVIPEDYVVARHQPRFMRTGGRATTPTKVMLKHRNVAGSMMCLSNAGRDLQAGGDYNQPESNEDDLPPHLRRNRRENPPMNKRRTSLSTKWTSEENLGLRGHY

[27] = target: T4, RNA-binding protein pos-1 (Caenorhabditis elegans, UniProt G5EF15); assay: inhibitors of POS-1/mex-3 RNA binding, dose response, biochemical, fluorescence polarization (AID 1964);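 further: purified POS-1 fused to maltose binding protein made in E. coli; potency of compounds blocking POS-1 binding to fluorescent RNA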
T4 sequence (G5EF15 whole entry): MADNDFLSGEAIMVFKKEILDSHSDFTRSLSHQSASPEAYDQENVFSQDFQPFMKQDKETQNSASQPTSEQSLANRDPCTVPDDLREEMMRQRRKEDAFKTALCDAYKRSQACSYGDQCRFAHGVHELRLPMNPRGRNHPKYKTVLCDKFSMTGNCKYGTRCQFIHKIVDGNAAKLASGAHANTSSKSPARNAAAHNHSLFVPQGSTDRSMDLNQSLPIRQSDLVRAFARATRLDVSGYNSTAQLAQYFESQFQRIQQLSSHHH

[28] = target: T5, Coagulation factor XII (Homo sapiens, UniProt P00748); type: functional;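 further: activated factor XIIa alpha cleaving a fluorogenic AMC peptide substrate; inhibitor potency from loss of enzyme activity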
T5 sequence (P00748 whole entry): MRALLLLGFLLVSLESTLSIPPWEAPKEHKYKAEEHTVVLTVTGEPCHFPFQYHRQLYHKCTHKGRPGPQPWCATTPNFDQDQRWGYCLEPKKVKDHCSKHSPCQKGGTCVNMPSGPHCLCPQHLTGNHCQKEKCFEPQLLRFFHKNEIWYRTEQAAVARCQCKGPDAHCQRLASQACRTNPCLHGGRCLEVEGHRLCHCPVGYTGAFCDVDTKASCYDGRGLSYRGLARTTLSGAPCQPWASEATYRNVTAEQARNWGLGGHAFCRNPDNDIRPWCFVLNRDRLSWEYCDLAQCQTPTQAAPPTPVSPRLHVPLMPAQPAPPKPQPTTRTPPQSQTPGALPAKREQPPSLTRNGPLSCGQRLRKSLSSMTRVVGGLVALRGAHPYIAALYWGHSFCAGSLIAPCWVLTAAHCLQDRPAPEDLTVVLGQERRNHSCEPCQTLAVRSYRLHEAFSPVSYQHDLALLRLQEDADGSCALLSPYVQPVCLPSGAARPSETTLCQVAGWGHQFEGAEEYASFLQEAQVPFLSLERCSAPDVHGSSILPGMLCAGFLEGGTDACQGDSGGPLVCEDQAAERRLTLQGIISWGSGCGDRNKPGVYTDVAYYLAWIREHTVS

[29] = target: T2, Estrogen receptor beta; assay: ERβ–SRC-3 coactivator interaction inhibitors, confirmation, orthogonal assay, biochemical, ELISA, streptavidin-HRP readout (AID 1060)
[30] = target: Induced myeloid leukemia cell differentiation protein Mcl-1 (Homo sapiens, UniProt Q07820); type: functional
Sequence of Induced myeloid leukemia cell differentiation protein Mcl-1 (Q07820 whole entry, the tested form may be a part): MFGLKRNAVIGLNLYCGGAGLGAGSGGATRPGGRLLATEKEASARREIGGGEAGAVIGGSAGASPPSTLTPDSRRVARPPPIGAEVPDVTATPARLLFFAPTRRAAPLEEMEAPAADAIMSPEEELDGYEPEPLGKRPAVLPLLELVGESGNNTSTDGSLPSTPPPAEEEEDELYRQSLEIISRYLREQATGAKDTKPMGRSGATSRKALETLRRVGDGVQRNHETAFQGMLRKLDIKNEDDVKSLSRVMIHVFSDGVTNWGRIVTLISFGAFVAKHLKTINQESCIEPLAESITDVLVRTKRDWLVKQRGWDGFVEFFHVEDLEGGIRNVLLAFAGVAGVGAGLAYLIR

[31] = target: T6, Carboxy-terminal domain RNA polymerase II polypeptide A small phosphatase 1 (Homo sapiens, UniProt Q9GZU7); assay: inhibitors of CTDSP1, concentration-response testing, biochemical assay, absorbance-based, actives from ultra-high-throughput screening (AID 540297); type: functional
T6 sequence (Q9GZU7 whole entry): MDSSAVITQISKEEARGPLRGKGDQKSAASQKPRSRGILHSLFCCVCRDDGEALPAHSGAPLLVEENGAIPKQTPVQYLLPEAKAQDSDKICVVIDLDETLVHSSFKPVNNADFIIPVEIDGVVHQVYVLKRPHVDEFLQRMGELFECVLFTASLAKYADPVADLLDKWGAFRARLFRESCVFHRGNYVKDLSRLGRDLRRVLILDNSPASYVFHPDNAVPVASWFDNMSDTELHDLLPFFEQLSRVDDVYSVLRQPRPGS

[32] = P. falciparum Dd2 growth inhibitors, dose response, SYBR Green, dry powder samples, set 9 (AID 1159568); type: functional, cell-based
[33] = HepG2 cell cytotoxicity, dose response, cytotoxicity control, cherry-picked samples (AID 1159577); type: functional, cell-based
[34] = Vero cell cytotoxicity, dose response, cytotoxicity control for Vif-APOBEC3G degradation inhibitor project, Vero cells (AID 1117358); type: functional; conditions: Human immunodeficiency virus 1, Vero

Sequence of G-protein coupled receptor 183 (P32249 whole entry): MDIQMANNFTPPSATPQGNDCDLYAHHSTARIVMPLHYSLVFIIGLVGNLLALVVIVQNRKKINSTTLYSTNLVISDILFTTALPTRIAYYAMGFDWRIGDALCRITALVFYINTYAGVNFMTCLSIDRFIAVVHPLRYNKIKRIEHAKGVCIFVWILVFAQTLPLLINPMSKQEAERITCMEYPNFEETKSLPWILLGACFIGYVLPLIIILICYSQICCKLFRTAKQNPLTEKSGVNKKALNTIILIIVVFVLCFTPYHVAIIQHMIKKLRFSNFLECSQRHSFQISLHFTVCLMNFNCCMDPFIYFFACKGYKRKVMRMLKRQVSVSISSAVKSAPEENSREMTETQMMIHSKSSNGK

Cc1cccc(Oc2ccc(N)cc2)c1
IC50 [1]: > 100 µM (active)

CC(C)c1ccc(S(=O)(=O)N2CCN(C(=O)/C=C/c3ccc(F)cc3)CC2)cc1
IC50 [2]: 0.0243 µM (active)

NCCc1c[nH]c2ccc(F)cc12
EC50 [3]: 2.22 µM (active)

Cc1cc(SCC(=O)N/N=C/c2ccc(O)c(O)c2)c(C)cc1Br
EC50 [4]: > 260 µM (inactive) | IC50 [5]: 1.65 µM (active)

CCOc1cc(/C=N/NC(N)=O)cc(Br)c1OCC(=O)Nc1ccccc1C
EC50 [6]: < 1 µM (active) | EC50 [7]: > 112 µM (not active) | EC50 [8]: 1.55 µM (active)

COc1ccc2nc(O)c(CN(C(=O)NC3CCCCC3)C3CCCCC3)cc2c1
IC50 [1]: > 100 µM (active)

C/C(=C\c1ccccc1)C(=O)n1nnc2ccccc21
IC50 [9]: 0.846 µM (active)

CC(=O)Nc1ccc(S(=O)(=O)N(C)c2ccc(O)cc2)cc1
EC50 [3]: > 50 µM (not active)

CCCC(=O)Nc1ccc2c(c1)OC[C@@H](C)N(Cc1ccc(F)cc1)C[C@@H](C)[C@H](OC)CN(C)C2=O
AC50 [10]: 1.92 µM (active) | AC50 [11]: 0.753 µM (active) | AC50 [12]: 9.67 µM (active) | AC50 [13]: 2.44 µM (active) | AC50 [14]: 2.51 µM (active) | AC50 [15]: 75.8 µM (active)

O=C(Nc1ccc(OCC(F)(F)C(F)F)c(C(F)(F)F)c1)c1ccccc1O
EC50 [4]: 67.4 µM (active) | AC50 [16]: 14.8 µM (active) | AC50 [17]: 4.78 µM (active) | AC50 [18]: 48.2 µM (active) | AC50 [19]: 7.06 µM (active) | AC50 [20]: 17.8 µM (active) | AC50 [21]: 6.09 µM (active) | AC50 [22]: 56.2 µM (active) | AC50 [23]: 3.62 µM (active)

CCOc1ccc(-n2c(C)cc(C(=O)CSCc3ccc(OC)cc3)c2C)cc1
EC50 [24]: 10 µM (active)

ON=C1/C(=N\O)CC2(C/C1=N/O)OCCO2
IC50 [25]: 14.1 µM (active) | EC50 [26]: 13 µM (active) | EC50 [27]: > 300 µM (not active)

O=C(/C=C/c1ccc(F)cc1)N1CCN(S(=O)(=O)C2=Cc3ccccc3CC2)CC1
IC50 [2]: 0.00115 µM (active)

COc1cccc(NC(=S)Nc2ccc(Br)cc2Cl)c1
IC50 [28]: > 50 µM (inactive) | IC50 [9]: > 50 µM (not active)

CC(C)Cn1c(N)c(C(=O)COC(=O)c2cc(-c3ccco3)nc3ccccc23)c(=O)n(C)c1=O
IC50 [29]: > 50 µM (not active) | IC50 [30]: 2.59 µM (active)

N#CC1=C(N)n2c(s/c(=C\c3ccco3)c2=O)=C(C#N)C1c1ccco1 (configuration not stated)
IC50 [29]: 1.92 µM (not active) | IC50 [31]: 3.44 µM (active)

COc1ccccc1C#Cc1ccc([C@H]2[C@@H](C#N)N(C(=O)C3CCCC3)[C@H]2CO)cc1
AC50 [10]: 0.873 µM (active) | AC50 [11]: 0.474 µM (active) | AC50 [32]: 0.493 µM (active) | AC50 [12]: 0.715 µM (active) | AC50 [13]: 0.808 µM (active) | AC50 [33]: 34.1 µM (active) | AC50 [14]: 1.16 µM (active) | AC50 [15]: 23.8 µM (active)

CC(=O)Nc1ccc(SCC(=O)c2cc(C)n(CC3COc4ccccc4O3)c2C)cc1 (configuration not stated)
EC50 [24]: 2.6 µM (active)

COc1cc(C(=O)NCC(c2ccco2)N2CCCC2)ccc1OCc1c(C)noc1C (configuration not stated)
CC50 [34]: > 40 µM (active)
